Patent US6017878A (McGill University, priority 1994, dated 2000)
Values joined by “and” are separate entries in the source; they are usually repeats but may differ in a detail not shown here. Equal entries are not always repeated. “Also recorded” adds a separate entry of the source.

Assays:
[1] = tested on: NGF induced neurite outgrowth in PC12 cells; assay: NGF induced neurite outgrowth assay in PC12 cells; assay type: cell-based, rat; details: analog ~10 μM, 50 ng/ml NGF; for INHIBITION OF NEURITE OUTGROWTH (1): PC12 cells, arbitrary units by comparison with NGF dose response curves
Method: (§1) All cells were cultured as described. PC12 pheochromocytoma cells expressing rat p140 trkA and p75 LNGFR (American Type Culture Collection, 7th edition, 1992, Catalog of cell lines and hybridomas, R. Hay Editor, accession No. CRL 1721) were grown in DMEM supplemented with 20% Fetal Bovine Serum (FBS), 10% Horse serum, and antibiotics. PC12 cells used for experiments were grown on collagen coated dishes. The NIH-3T3 fibroblast transfectants R7 (p75 and trkA double transfectant) and E25 (trkA transfectant) (Jing, S. et al. (1992) Neuron, 9: 1067-1079; kindly provided by Dr. Mariano Barbacid, Bristol-Meyers-Squibb, NJ) were grown in RPMI media supplemented with 5% FBS and antibiotics and the appropriate drug selection.
(§2) Cells without growth factor added served as baseline, whereas cells with growth factor but without analog added were used for maximum neurite outgrowth determination. All analogs were tested in at least three separate assays from three different synthesis. Samples were coded and analysis were performed blind.
(§3) Representative results for 3 different analogs are shown. For a summary and complete list of the results from these biological tests see Table II.
Significant inhibition is indicated by +++.

PC12 (trkA-p75) = molecular target: T1, PC12 (trkA-p75) (Rattus norvegicus, UniProt P35739); assay: 125I-NGF binding to PC12 cells; details: mean ±2 SEM
T1 construct: PC12 pheochromocytoma cells expressing rat p140 trkA and p75 LNGFR; host or cells: PC12 rat pheochromocytoma cells
Method: as §1
Analogs were tested for their ability to affect binding of ^125 I-NGF (73.1 μCi/μg NEN, DuPont). […] After 15 min, ^125 I-NGF was added to a final concentration of 0.4-2 nM (^~ 40,000 cpm) and the mixtures were further incubated for 40 min at 4° C. Cells were then washed in binding buffer, pelleted, and cell-associated ^125 I-NGF was determined. […] Assays were performed >4 times, each from at least three different synthesis (inhibitory analogs) or 1-3 times each from 2 different synthesis (non-inhibitory analogs). Receptor saturation experiments were similarly performed with increasing concentrations of ^125 I-NGF ligand and a constant dose of inhibitor.
To determine the mechanism of biological antagonistic activity by the cyclic analogs, ^125 I-NGF binding measurements were performed with cell lines expressing both p75 and trkA receptors (PC12 cells and R7 transfectants) or only trkA receptors (E25 transfectants) (Table III). Analogs were used at a concentration of ^~ 40 μM.
(§4) Data shown represents an average percent inhibition of binding ±2 standard errors of the mean (2 SEM). […] NT=not tested. (*) assayed only once.
(§5) Percent inhibition was determined by applying the following formula: [formula]

[2] = molecular target: T2, R7 (trkA-p75), NIH-3T3 p75 and trkA double transfectant (Homo sapiens, UniProt P04629); assay: 125I-NGF binding to R7 transfectants; details: analog ~40 μM; for % INHIBITION of 125I-NGF binding, R7 (trkA-p75): mean ±2 SEM
T2 construct: expressed in transfected cells; host or cells: NIH-3T3 mouse fibroblasts (R7), from Dr. Mariano Barbacid; Jing et al. 1992
Method: as §1
(§6) Assays were performed >4 times, each from at least three different synthesis (inhibitory analogs) or 1-3 times each from 2 different synthesis (non-inhibitory analogs).
(§7) Analogs were used at a concentration of ^~ 40 μM.
as §4, §5

[3] = molecular target: T3, E25 (trkA), trkA receptor expressing fibroblast transfectants (Homo sapiens, UniProt P04629); assay: 125I-NGF binding to E25 transfectants, with dose response and saturation studies; details: for % INHIBITION of 125I-NGF binding, E25 (trkA) / effect on 125I-NGF binding to E25 cells (in words): analog ~40 μM; for % INHIBITION of 125I-NGF binding, E25 (trkA): mean ±2 SEM
T3 construct: expressed in transfected cells; host or cells: NIH-3T3 mouse fibroblasts (E25), from Dr. Mariano Barbacid; Jing et al. 1992
Method: as §1, §6, §7, §4, §5
Saturation binding assays were performed with trkA receptor expressing E25 cells as described above.

[4] = tested on: bFGF mediated neurite outgrowth in PC12 cells; assay: bFGF mediated neurite outgrowth in PC12 cells (specificity control); assay type: cell-based, rat; details: analog ~10 μM, 50 ng/ml bFGF
Method: as §2, §3

PC12 cells = assay: Toxicity control: cell death of PC12 cells after culture with the compounds; assay type: cell-based, rat
[5] = molecular target: T4, surface trkA receptors on E25 cells (Homo sapiens, UniProt P04629); assay: trkA receptor internalization in E25 cells (FACScan); assay type: cell-based; details: 10 μM, 30 min, 37° C. permissive vs 4° C. 0.05% sodium azide
T4 construct: expressed in transfected cells; host or cells: NIH-3T3 mouse fibroblasts (E25), from Dr. Mariano Barbacid; Jing et al. 1992
Source text: Expression of surface trkA receptors was quantified by FACScan analysis.
FIG. 4A illustrates FACScan profiles using an anti-trkA specific monoclonal antibody versus control mouse IgG.
FIG. 4B is a graph of the analysis of the % reduction of cell surface mean fluorescence channel (MFC, using the Lysis (B.D.) software) after receptor internalization.

[6] = molecular target: T3, E25 (trkA), trkA receptor expressing fibroblast transfectants; assay: 125I-NGF binding to E25 transfectants, with dose response and saturation studies; details: dose response 0.4 μM to 200 μM analog, constant 200 pM 125I-NGF; read-out: IC50, inhibition of 125I-NGF binding
NGF biological activity = details: Longo et al. 1990; cited from earlier work

T2 sequence (P04629 33-796): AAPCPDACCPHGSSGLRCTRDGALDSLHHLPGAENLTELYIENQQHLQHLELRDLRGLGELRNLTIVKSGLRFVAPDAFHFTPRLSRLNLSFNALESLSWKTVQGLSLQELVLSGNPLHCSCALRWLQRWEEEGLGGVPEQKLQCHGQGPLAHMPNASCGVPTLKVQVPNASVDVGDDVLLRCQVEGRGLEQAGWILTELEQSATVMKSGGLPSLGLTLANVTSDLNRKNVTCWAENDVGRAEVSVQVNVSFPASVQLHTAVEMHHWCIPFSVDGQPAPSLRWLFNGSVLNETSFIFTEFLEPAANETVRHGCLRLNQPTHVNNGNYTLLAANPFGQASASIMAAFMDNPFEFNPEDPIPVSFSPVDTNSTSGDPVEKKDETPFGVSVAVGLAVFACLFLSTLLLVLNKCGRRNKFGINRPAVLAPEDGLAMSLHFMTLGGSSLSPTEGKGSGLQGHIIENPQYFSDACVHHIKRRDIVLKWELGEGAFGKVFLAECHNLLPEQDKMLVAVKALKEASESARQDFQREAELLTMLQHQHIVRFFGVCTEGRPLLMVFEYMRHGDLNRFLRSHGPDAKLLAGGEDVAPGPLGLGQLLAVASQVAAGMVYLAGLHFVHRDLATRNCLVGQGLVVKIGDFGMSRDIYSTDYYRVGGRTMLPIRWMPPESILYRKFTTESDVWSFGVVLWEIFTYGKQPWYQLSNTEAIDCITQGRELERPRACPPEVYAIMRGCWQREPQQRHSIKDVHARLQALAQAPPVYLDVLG
T3 sequence (P04629 33-790 isoform P04629-2 limits assumed): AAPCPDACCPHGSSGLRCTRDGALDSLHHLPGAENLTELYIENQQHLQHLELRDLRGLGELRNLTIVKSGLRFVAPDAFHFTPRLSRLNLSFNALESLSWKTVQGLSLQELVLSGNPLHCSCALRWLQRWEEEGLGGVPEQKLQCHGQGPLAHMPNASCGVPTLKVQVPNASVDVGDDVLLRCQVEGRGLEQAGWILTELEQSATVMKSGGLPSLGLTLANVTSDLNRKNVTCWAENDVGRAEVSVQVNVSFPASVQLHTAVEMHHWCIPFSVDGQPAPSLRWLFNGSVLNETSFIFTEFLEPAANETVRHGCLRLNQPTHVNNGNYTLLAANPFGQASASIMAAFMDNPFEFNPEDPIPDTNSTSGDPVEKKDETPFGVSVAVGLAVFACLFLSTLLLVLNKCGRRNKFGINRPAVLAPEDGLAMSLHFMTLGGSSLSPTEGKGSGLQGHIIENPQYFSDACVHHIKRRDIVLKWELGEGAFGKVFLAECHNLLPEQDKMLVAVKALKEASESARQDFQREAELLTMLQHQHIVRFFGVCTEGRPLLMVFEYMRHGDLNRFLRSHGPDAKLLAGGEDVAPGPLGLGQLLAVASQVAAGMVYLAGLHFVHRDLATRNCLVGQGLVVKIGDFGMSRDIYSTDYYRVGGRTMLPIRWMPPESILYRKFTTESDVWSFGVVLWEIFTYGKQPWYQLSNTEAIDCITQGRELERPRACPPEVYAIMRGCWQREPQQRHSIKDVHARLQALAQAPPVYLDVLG
T1 sequence (P35739 33-799): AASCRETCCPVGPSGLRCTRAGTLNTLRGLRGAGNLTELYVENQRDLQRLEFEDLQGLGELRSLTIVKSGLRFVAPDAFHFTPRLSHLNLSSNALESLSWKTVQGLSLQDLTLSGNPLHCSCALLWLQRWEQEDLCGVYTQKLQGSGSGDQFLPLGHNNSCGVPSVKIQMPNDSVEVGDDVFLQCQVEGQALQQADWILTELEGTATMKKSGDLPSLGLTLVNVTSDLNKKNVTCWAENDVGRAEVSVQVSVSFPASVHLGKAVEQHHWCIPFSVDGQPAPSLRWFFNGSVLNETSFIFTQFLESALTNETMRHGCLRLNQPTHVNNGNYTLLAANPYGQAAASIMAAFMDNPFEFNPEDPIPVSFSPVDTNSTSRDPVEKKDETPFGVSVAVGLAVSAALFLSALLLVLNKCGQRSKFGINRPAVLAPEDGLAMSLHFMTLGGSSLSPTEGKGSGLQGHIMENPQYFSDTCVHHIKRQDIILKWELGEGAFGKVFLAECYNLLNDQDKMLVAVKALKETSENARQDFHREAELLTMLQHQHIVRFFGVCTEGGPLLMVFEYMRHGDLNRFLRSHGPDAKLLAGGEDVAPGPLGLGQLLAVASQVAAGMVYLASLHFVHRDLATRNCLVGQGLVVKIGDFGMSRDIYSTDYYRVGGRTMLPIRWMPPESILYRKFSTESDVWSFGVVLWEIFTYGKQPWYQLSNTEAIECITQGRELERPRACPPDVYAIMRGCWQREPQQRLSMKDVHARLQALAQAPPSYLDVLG
T4 sequence (P04629 33-790 isoform P04629-2 limits assumed): as the sequence (P04629 33-790 isoform P04629-2 limits assumed) above

## A N V S R S P E G (ANVSRSPEG) [R(59-67), randomized 59-67 control]
[1]
  INHIBITION OF NEURITE OUTGROWTH (1): + (equivalent to 25 ng/ml NGF)

## A T D I K G K E V (ATDIKGKEV) [L(28-36), linear 28-36 control]
PC12 (trkA-p75); analog ~40 μM
  % INHIBITION of 125I-NGF binding, PC12 (trkA-p75): 5.0%
[2]
  % INHIBITION of 125I-NGF binding, R7 (trkA-p75): -11.3%
[3]
  % INHIBITION of 125I-NGF binding, E25 (trkA): 6.4 ± 12.4%

## Fmoc-X C A S N P V E S C X [C(60-66)]
[1]
  INHIBITION OF NEURITE OUTGROWTH (1): ++ (equivalent to 12.5 ng/ml NGF)

## Fmoc-X C D I K G K E C X [C(30-35)]
[1]
  effect on NGF mediated PC12 neurite outgrowth (in words): did not affect
[4]
  effect on bFGF mediated PC12 neurite outgrowth (in words): did not affect
[2]
  effect on 125I-NGF binding to R7 cells (in words): did not affect NGF binding to R7 cells
  % INHIBITION of 125I-NGF binding, R7 (trkA-p75): 0.44 ± 0.6%
[3]
  effect on 125I-NGF binding to E25 cells (in words): inhibited NGF binding to E25 cells
  % INHIBITION of 125I-NGF binding, E25 (trkA): 51.1 ± 0.7%

## Fmoc-X C I K G K E C X [C(31-35)]
[1]
  INHIBITION OF NEURITE OUTGROWTH (1): ++ (equivalent to 12.5 ng/ml NGF)

## Fmoc-X C I N N S V C X [C(44-48)]
[1]
  effect on NGF mediated PC12 neurite outgrowth (in words): significantly inhibited; also recorded: effective in inhibiting biological assays in PC12 cells
  INHIBITION OF NEURITE OUTGROWTH (1): +++ (equivalent to 6.25 ng/ml NGF)
[4]
  effect on bFGF mediated PC12 neurite outgrowth (in words): did not affect
[3]
  effect on 125I-NGF binding to E25 cells (in words): did not inhibit; also recorded: without being effective at all in binding assays in E25 cells
  % INHIBITION of 125I-NGF binding, E25 (trkA): -12.5 ± 5.4%

## Fmoc-X C K G K E C X [C(32-35)]
[1]
  INHIBITION OF NEURITE OUTGROWTH (1): ++ (equivalent to 12.5 ng/ml NGF)
PC12 (trkA-p75); analog ~40 μM
  % INHIBITION of 125I-NGF binding, PC12 (trkA-p75): 9.0%
[2]
  effect on 125I-NGF binding to R7 cells (in words): did not affect NGF binding to R7 cells
  % INHIBITION of 125I-NGF binding, R7 (trkA-p75): -4.5 ± 6.5%
[3]
  effect on 125I-NGF binding to E25 cells (in words): inhibited NGF binding to E25 cells
  % INHIBITION of 125I-NGF binding, E25 (trkA): 30.7 ± 10.5%

## Fmoc-X C N I N N S C X [C(43-47)]
[1]
  INHIBITION OF NEURITE OUTGROWTH (1): + (equivalent to 25 ng/ml NGF)

## Fmoc-X C N I N N S V C X [C(43-48)]
[1]
  effect on NGF mediated PC12 neurite outgrowth (in words): significantly inhibited; also recorded: effective in inhibiting biological assays in PC12 cells
  INHIBITION OF NEURITE OUTGROWTH (1): +++ (equivalent to 6.25 ng/ml NGF)
[4]
  effect on bFGF mediated PC12 neurite outgrowth (in words): did not affect; also recorded: bFGF was not affected
[2]
  % INHIBITION of 125I-NGF binding, R7 (trkA-p75): 5.0%
[3]
  effect on 125I-NGF binding to E25 cells (in words): did not inhibit; also recorded: without being effective at all in binding assays in E25 cells
  % INHIBITION of 125I-NGF binding, E25 (trkA): -2.7 ± 8.5%

## Fmoc-X C S N P V E S C X [C(61-66)]
PC12 cells
  cell death / necrosis after culture with the compounds: did cause necrosis

## Fmoc-X C T A I K G K E C X [C(29-35ΔD30A)]
PC12 cells
  cell death / necrosis after culture with the compounds: did cause necrosis

## Fmoc-X C T D E K Q A C X [C(92-97)]
[1]
  effect on NGF mediated PC12 neurite outgrowth (in words): significantly inhibited
  INHIBITION OF NEURITE OUTGROWTH (1): +++ (equivalent to 6.25 ng/ml NGF)
[4]
  effect on bFGF mediated PC12 neurite outgrowth (in words): did not affect
[2]; 40 µM
  % INHIBITION of 125I-NGF binding, R7 (trkA-p75): 24.3% and 24.3 ± 9.2%
[3]; 40 µM
  % INHIBITION of 125I-NGF binding, E25 (trkA): 64.9% and 64.9 ± 12.4%
[5]
  disappearance of surface trkA receptors (receptor internalization): induced the disappearance of surface trkA receptors at the permissive conditions only

## Fmoc-X C T D E K Q C X [C(92-96)]
[1]
  effect on NGF mediated PC12 neurite outgrowth (in words): significantly inhibited
[4]
  effect on bFGF mediated PC12 neurite outgrowth (in words): did not affect
PC12 (trkA-p75); analog ~40 μM
  % INHIBITION of 125I-NGF binding, PC12 (trkA-p75): 86.4 ± 10.4%
[2]; 40 µM
  % INHIBITION of 125I-NGF binding, R7 (trkA-p75): 51.1% and 51.1 ± 0.7%
[3]; 45 μM analog, 125I-NGF 0-1.13 nM, E25 cells
  nature of inhibition in saturation analysis: competitive nature
[3]; 40 µM
  % INHIBITION of 125I-NGF binding, E25 (trkA): 71.3% and 71.3 ± 13.5%
[6]
  IC50: 23.5 ± 16 µM

## N N S F V I N V (NNSFVINV) [R(42-49), randomized 42-49 control]
[1]
  INHIBITION OF NEURITE OUTGROWTH (1): + (equivalent to 25 ng/ml NGF)

## Nerve Growth Factor [NGF]
PC12 (trkA-p75); 0.1 uM unlabeled NGF
  % INHIBITION of 125I-NGF binding, PC12 (trkA-p75): 69.5 ± 4.5%

## R A S N P V E S G (RASNPVESG) [L(59-67), linear 59-67 control]
[1]
  INHIBITION OF NEURITE OUTGROWTH (1): + (equivalent to 25 ng/ml NGF)
[3]
  % INHIBITION of 125I-NGF binding, E25 (trkA): -9.5 ± 7.5%

## T T D E K Q A A W (TTDEKQAAW) [L(91-99), linear 91-99 control]
[1]
  INHIBITION OF NEURITE OUTGROWTH (1): + (equivalent to 25 ng/ml NGF)
[2]
  % INHIBITION of 125I-NGF binding, R7 (trkA-p75): 3.8 ± 1.0%
[3]
  effect on 125I-NGF binding to E25 cells (in words): None of the other cyclic, linear or randomized analogs had significant effects
  % INHIBITION of 125I-NGF binding, E25 (trkA): 2.1 ± 8.5%

## V N I N N S V F (VNINNSVF) [L(42-49), linear 42-49 control]
[2]
  % INHIBITION of 125I-NGF binding, R7 (trkA-p75): 8.0%
[3]
  % INHIBITION of 125I-NGF binding, E25 (trkA): -16.0 ± 15.1%

## X C A S N P V E C [C(60-65)]
[1]
  INHIBITION OF NEURITE OUTGROWTH (1): ++ (equivalent to 12.5 ng/ml NGF)

## peptide with sequences from NGF residues 23-35: prior-art linear peptide of Longo et al. with sequences from NGF residues 23-35 (GDKTTATDIKGKE; UniProt P01138 144-156, looked up, fragment)
NGF biological activity
  concentration of peptide at which inhibition of NGF biological activity occurred: 2 mM
